The structures appear in SMILES notation. pIC50: −log10 of the molar value. Read-outs that look alike come from different tables or passages of the source.

Common to all, as to format: biochemical
For one assay, the target named is MLK3/MAP3K11 (Homo sapiens, UniProt Q16584). The assay can be described thus: Kinase selectivity panel, MLK3/MAP3K11. An excerpt: (§1) The data in Table 42 also provides the fold selectivity of the two compounds in favour of MAP4K4 over the tested kinase. The fold selectivity is indicated in parenthesis.
Assay [1] addresses T1, human MAP4K4 kinase domain (Homo sapiens, UniProt O95819).
T1 construct: 0.5 nM human MAP4K4 kinase domain (Invitrogen); purchased Invitrogen
The assay is described as follows: MAP4K4 kinase activity, CisBio HTRF Transcreener ADP assay. In outline: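 HTRF Transcreener ADP read-out (665/620 nm ratio) of ADP formed by 0.5 nM kinase domain with 1 μM biotin-myelin basic protein substrate and ATP at Km (10 μM), 1% DMSO, 2 h reaction. IC50 values binned as A ≤100 nM, B 100 nM–1 μM, C >1 μM.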
In general terms: Time-resolved FRET reads energy transfer from a long-lived donor to a nearby acceptor.

The target in another assay is MLK1/MAP3K9 (Homo sapiens, UniProt P80192). The assay is described as follows: Kinase selectivity panel, MLK1/MAP3K9.
From the text: as §1

The target of another assay is KHS/MAP4K5 (Homo sapiens, UniProt Q9Y4K4). The assay can be described thus: Kinase selectivity panel, KHS/MAP4K5.
From the text: as §1

The next assay deals with TNIK/MAP4K7 (Homo sapiens, UniProt Q9UKE5). The assay is described as follows: Kinase selectivity panel, TNIK/MAP4K7. The following applies: read-out: pIC50 TNIK/MAP4K7 (converted).
From the text: as §1

Another assay deals with T2, NUAK1 (Homo sapiens, UniProt O60285).
T2 sequence (O60285 1-661): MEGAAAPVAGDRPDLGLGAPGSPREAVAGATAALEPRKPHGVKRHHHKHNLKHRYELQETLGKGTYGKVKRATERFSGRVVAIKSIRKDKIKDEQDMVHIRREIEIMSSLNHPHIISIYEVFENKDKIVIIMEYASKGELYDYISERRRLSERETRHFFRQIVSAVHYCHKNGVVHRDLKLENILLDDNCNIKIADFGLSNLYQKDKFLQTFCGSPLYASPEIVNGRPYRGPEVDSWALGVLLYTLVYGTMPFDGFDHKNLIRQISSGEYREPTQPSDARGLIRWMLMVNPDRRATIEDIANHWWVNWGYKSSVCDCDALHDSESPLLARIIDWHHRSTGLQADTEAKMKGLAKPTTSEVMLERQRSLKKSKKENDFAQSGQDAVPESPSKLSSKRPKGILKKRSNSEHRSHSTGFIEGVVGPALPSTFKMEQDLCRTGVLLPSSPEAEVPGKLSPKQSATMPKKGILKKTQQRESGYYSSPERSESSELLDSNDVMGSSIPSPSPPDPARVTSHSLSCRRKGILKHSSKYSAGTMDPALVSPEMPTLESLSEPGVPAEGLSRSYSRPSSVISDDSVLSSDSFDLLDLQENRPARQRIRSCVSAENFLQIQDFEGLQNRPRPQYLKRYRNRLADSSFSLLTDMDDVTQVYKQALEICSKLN
The assay can be described thus: Kinase selectivity panel, NUAK1.
From the text: as §1

In another assay the target is MINK1/MAP4K6 (Homo sapiens, UniProt Q8N4C8). The assay can be described thus: Kinase selectivity panel, MINK1/MAP4K6. The following applies: read-out: pIC50 MINK1/MAP4K6 (converted).
From the text: as §1

The target in a further assay is Aurora B (Homo sapiens, UniProt Q96GD4). The assay can be described thus: Kinase selectivity panel, Aurora B. To be noted: in favour of MAP4K4.
From the text: as §1

For a further assay, the target named is T3, GLK/MAP4K3 (Homo sapiens, UniProt Q8IVH8).
T3 sequence (Q8IVH8 1-894): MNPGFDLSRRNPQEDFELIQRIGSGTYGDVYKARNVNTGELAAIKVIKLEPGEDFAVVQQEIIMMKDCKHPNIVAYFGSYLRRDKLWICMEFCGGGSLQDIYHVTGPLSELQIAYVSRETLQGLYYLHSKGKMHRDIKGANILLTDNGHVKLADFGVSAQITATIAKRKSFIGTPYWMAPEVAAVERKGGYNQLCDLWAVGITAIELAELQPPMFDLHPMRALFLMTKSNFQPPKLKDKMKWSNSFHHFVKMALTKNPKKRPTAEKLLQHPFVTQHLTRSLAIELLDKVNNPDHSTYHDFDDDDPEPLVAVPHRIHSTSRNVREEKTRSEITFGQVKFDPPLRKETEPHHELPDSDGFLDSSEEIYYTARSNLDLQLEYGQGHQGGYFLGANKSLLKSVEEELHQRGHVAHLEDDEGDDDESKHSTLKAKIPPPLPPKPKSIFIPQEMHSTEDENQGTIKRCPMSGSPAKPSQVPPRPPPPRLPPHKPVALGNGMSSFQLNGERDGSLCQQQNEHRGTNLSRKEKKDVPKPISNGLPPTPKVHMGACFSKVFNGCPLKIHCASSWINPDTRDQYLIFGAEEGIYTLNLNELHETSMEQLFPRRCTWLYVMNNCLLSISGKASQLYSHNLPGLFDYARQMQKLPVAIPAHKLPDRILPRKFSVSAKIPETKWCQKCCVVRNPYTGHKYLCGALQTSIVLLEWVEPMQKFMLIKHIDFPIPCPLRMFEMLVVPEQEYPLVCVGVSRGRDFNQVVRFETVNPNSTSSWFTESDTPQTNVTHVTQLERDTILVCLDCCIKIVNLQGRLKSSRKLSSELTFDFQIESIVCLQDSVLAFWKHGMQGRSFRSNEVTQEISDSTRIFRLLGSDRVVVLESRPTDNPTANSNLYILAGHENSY
The assay is described as follows: Kinase selectivity panel, GLK/MAP4K3. The following applies: in favour of MAP4K4.
From the text: as §1

Another assay concerns the target T4, GCK/MAP4K2 (Homo sapiens, UniProt Q12851).
T4 sequence (Q12851 1-820): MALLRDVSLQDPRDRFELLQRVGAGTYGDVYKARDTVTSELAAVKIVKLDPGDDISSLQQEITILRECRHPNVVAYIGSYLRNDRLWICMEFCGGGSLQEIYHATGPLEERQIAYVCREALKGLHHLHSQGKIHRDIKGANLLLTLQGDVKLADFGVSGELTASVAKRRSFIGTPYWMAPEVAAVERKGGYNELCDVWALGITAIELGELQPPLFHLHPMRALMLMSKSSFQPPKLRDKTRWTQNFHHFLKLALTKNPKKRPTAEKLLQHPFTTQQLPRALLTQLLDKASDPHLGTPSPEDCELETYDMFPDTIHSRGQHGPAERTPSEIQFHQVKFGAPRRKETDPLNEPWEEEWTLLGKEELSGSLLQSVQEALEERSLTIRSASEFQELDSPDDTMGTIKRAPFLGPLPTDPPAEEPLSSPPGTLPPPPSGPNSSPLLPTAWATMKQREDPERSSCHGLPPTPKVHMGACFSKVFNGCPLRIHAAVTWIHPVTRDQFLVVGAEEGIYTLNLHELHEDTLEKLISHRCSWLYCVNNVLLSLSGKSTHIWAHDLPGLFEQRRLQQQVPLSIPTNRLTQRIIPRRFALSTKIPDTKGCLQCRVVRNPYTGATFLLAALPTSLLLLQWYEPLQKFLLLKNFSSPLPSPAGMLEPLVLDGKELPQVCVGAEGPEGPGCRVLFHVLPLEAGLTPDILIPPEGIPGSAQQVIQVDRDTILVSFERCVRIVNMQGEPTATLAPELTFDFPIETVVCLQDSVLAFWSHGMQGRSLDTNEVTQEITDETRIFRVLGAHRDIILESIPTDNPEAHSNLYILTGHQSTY
The assay is described as follows: Kinase selectivity panel, GCK/MAP4K2.
From the text: as §1

Sequence of MLK1/MAP3K9 (P80192 whole entry): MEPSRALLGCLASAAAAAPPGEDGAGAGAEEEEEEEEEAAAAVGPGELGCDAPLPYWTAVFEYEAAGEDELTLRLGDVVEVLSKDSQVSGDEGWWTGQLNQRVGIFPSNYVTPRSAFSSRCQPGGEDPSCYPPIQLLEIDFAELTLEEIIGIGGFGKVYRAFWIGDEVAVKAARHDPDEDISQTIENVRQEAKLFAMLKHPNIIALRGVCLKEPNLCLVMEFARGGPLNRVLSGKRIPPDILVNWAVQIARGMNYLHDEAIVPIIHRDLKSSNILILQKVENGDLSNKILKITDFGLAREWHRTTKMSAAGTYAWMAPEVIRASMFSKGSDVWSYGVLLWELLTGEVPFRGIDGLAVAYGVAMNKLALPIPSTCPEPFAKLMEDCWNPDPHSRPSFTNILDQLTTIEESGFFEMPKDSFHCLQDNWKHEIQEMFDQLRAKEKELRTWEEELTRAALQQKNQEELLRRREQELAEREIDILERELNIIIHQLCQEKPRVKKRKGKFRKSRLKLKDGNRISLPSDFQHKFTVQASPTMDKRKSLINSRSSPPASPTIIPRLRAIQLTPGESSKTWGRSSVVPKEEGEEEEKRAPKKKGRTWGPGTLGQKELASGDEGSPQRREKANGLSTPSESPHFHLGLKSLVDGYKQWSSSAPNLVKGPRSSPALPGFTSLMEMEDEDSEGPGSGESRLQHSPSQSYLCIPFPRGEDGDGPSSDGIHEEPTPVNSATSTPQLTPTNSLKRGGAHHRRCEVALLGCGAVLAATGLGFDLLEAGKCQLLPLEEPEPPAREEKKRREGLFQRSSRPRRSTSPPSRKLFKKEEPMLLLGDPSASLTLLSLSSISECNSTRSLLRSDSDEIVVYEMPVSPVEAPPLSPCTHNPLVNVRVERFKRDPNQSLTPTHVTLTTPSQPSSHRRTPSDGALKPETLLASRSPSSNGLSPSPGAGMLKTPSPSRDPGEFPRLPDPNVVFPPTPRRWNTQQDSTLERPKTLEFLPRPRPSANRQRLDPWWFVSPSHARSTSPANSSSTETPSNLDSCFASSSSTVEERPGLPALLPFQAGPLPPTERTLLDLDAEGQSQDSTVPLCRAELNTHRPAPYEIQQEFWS
Sequence of MLK3/MAP3K11 (Q16584 whole entry, the tested form may be a part): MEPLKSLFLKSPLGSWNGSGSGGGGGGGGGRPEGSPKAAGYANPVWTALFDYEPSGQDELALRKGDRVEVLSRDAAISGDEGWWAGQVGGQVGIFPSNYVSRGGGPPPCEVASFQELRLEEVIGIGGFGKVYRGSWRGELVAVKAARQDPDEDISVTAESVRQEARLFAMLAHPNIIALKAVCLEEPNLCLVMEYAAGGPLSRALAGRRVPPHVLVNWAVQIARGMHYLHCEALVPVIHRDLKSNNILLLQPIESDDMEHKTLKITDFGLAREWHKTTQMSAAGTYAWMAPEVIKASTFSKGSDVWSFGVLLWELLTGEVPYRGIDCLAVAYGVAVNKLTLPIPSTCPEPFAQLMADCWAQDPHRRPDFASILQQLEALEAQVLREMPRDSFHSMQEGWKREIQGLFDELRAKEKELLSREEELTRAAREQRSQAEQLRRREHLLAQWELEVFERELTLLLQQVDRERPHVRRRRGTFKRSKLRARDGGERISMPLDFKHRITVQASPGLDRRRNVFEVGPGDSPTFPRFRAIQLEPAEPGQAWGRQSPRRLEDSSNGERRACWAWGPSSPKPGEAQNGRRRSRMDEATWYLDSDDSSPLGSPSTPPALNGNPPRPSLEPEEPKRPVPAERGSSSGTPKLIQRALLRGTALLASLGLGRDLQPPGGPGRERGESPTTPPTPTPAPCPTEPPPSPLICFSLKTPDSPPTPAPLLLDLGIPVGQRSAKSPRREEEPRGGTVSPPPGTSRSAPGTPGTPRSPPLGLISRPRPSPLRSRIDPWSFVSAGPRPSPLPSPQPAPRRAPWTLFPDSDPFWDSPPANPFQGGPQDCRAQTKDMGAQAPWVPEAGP
Sequence of KHS/MAP4K5 (Q9Y4K4 whole entry): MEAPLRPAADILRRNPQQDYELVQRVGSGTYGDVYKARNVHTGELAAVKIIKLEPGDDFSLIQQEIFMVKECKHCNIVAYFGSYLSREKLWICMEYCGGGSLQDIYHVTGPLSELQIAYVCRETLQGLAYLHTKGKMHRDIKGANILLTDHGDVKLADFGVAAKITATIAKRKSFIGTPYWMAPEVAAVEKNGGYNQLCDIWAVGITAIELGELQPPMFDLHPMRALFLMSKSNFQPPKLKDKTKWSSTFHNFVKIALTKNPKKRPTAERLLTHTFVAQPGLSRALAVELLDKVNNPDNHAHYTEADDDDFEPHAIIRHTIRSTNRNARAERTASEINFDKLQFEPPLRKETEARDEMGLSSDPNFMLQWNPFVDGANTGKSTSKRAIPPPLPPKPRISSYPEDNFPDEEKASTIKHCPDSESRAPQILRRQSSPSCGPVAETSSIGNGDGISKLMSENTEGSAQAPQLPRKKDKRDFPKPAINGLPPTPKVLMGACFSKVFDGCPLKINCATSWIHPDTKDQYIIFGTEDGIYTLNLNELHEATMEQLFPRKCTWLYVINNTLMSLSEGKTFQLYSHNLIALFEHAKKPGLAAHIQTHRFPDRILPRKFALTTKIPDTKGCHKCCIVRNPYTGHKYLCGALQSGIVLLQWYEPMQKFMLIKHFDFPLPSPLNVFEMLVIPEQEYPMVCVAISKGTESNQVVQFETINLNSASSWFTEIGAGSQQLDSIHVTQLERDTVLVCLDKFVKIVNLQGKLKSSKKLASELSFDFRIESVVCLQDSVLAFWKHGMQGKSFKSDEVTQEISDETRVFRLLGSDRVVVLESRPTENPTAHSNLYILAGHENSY
T1 sequence (O95819 25-289 limits assumed): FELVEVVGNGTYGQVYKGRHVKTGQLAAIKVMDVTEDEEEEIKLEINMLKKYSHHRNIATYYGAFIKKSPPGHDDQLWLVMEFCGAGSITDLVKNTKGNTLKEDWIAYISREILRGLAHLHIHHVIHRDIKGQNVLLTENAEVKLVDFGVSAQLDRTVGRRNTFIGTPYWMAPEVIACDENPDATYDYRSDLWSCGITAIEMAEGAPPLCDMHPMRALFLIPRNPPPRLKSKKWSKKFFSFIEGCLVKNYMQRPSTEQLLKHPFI
Sequence of MINK1/MAP4K6 (Q8N4C8 whole entry): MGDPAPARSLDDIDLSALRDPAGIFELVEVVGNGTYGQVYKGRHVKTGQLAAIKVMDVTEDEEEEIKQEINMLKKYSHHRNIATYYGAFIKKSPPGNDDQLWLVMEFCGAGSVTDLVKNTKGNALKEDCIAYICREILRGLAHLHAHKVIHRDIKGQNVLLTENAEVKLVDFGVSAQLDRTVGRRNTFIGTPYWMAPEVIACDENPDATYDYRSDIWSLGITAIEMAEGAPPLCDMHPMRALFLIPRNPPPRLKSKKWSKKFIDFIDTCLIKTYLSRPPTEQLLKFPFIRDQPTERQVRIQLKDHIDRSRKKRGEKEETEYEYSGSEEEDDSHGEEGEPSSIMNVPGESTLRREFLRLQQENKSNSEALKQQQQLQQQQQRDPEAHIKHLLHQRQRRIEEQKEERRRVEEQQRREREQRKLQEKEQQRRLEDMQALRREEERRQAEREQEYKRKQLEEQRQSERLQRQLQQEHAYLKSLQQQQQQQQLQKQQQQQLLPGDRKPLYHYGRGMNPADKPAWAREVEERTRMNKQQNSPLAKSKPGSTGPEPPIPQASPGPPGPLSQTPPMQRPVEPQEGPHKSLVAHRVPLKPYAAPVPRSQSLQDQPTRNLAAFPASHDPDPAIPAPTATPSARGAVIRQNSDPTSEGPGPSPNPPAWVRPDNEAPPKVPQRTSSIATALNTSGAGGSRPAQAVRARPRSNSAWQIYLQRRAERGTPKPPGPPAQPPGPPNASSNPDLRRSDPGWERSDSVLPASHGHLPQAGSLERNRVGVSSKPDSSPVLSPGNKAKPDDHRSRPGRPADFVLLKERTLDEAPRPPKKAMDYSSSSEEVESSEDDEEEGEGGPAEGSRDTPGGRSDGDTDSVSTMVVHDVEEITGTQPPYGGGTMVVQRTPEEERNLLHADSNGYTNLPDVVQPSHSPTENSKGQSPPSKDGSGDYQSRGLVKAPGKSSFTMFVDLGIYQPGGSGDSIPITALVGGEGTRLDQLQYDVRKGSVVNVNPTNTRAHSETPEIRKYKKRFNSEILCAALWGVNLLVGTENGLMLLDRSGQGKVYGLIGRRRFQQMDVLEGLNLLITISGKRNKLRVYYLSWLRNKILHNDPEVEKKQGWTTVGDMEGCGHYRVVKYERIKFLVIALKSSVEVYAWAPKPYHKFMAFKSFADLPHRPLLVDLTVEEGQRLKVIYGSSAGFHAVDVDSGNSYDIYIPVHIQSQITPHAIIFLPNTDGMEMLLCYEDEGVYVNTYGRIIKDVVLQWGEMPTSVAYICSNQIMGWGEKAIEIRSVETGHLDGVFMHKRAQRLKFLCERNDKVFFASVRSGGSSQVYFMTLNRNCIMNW
Sequence of Aurora B (Q96GD4 whole entry): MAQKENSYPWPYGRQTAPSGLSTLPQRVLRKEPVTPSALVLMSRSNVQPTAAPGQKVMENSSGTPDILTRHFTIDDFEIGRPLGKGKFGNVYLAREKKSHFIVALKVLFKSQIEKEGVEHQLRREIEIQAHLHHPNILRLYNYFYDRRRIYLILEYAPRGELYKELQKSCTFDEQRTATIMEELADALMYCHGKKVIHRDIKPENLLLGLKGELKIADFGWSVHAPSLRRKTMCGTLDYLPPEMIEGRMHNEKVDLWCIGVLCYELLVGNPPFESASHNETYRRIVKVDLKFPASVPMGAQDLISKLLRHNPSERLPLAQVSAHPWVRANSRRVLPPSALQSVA

Turning to `COCCOc1ccc(-c2cn(-c3cccc(F)c3)c3nc[nH]c(=O)c23)cn1` [Ex-29], the “fold selectivity MAP4K4 over MLK3/MAP3K11” value at MLK3/MAP3K11 (in favour of MAP4K4) is reported as “(25) fold”. The IC50 at MLK3/MAP3K11 (read-out: pIC50 MLK3/MAP3K11 (converted)) is 501 nM; in assay [1] (read-out: pIC50 MAP4K4 (converted)), 20 nM; at MLK1/MAP3K9 (read-out: pIC50 MLK1/MAP3K9 (converted)), 398 nM; at KHS/MAP4K5 (read-out: pIC50 KHS/MAP4K5 (converted)), 1000 nM; at TNIK/MAP4K7, 31.6 nM; at NUAK1 (read-out: pIC50 NUAK1 (converted)), 316 nM. Further, the IC50 at MINK1/MAP4K6 is 12.6 nM; on GCK/MAP4K2 (read-out: pIC50 GCK/MAP4K2 (converted)), 1000 nM. In addition, the pIC50 in assay [1] (IC50 category, ATP at Km (10 μM), 0.5 nM kinase domain, 2 h, read-out: MAP4K4) is at least 7.00. For the same molecule, the “fold selectivity MAP4K4 over MLK1/MAP3K9” value on MLK1/MAP3K9 (in favour of MAP4K4) is on record as “(20) fold”. The “fold selectivity MAP4K4 over KHS/MAP4K5” value on KHS/MAP4K5 (in favour of MAP4K4) is on record as “(50) fold”. Also, the “fold selectivity MAP4K4 over NUAK1” value at NUAK1 (in favour of MAP4K4) is “(16) fold”. Further, the “fold selectivity MAP4K4 over Aurora B” value on Aurora B is “(>1000) fold”. Besides, the “fold selectivity MAP4K4 over GLK/MAP4K3” value on GLK/MAP4K3 is recorded as “(>1000) fold”. Also, the “fold selectivity MAP4K4 over GCK/MAP4K2” value at GCK/MAP4K2 (in favour of MAP4K4) is reported as “(50) fold”.
